Consider 14 substances from patent US9642895B2, “Peptides for enhancing transdermal delivery” (3M INNOVATIVE PROPERTIES COMPANY, priority 2013, dated 2017).

For assay [1], the system named is human cadaver skin. The experiment in a line: Phage display library selection for skin penetration using tape stripping. The class given is in vitro ADME. To be noted: phage-displayed peptide; phages recovered from tape strips 21-24 and remaining skin after 4 rounds of selection; 57 plaques sequenced. As for the experimental part: (§1) Human cadaver skin was stored frozen. Prior to using, the frozen sections were placed in PBS and warmed to room temperature. The phage libraries or synthesized peptide sequences were applied to the stratum corneum side of the skin sample.
A tube containing LB medium (2 mL) and tetracycline (at a concentration of 20 μg/mL) was inoculated with E. coli ER2738 cells and then incubated overnight at 37° C. with shaking (200 rpm). An aliquot (100 microliter) was added to 20 mL of fresh LB medium containing 20 μg/mL of tetracycline. The culture was incubated at 37° C. with shaking (200 rpm) of the flask and the cells were grown to the early-log phase (OD600=0.5). Next, the phage sample was added and the culture was maintained for 4 hours at 37° C. with shaking of the flask.
E. coli ER2738 cells were removed from the phage amplified culture sample by centrifugation at 8000 rpm for 10 minutes. The resulting supernatant solution was added to the PEG/NaCl Phage precipitating solution (at a concentration of […]) and then maintained at 4° C. for 2 hours. The resulting phage precipitate was recovered by centrifuging the sample (8000 rpm for 30 min), removing the supernatant, and re-suspending the phage pellet in 2 mL of Tris-buffered saline (Tris buffered saline reagent prepared as 50 mM Tris-HCl in 150 mM NaCl buffered saline, pH 7.5). The amplified phage product was stored at 4° C.
LB Broth Medium (5-10 mL) was inoculated with a single colony of E. coli ER2738 and incubated with shaking (200 rpm) at 37° C. until the cells reached the early-log growth phase (OD600=0.5). The culture medium was then dispensed into multiple microfuge tubes (200 microliters per microfuge tube with one tube prepared for each phage dilution). Ten fold serial dilutions of amplified phage product in LB broth medium were prepared and a 10 microliter aliquot from each dilution was added to a separate microfuge tube containing culture medium. Each tube was vortexed and incubated at room temperature for 1-5 minutes.
The contents of each microfuge tube were transferred to a corresponding culture tube containing 3mL of soft agar maintained at 45° C. Each culture tube was then vortexed and the soft agar was poured onto a corresponding pre-warmed (37° C.) LB/IPTG/X-gal\tetraycline Petri plate. The resulting plates were gently tilted and rotated in order to evenly spread the soft agar on the plates. The plates were cooled for five minutes, inverted, and then incubated overnight at 37° C. Plates having approximately 100 plaques were counted providing an adjustment for the dilution factor. Single plaque phages on the plates were selected and further processed for DNA sequencing.
(§2) E. coli ER2738 cell culture (800 microliters of an early-log phase prepared as described above) was added to each well of a 96 deep well plate (each well having a 2 mL volume). Single plaque phages were randomly selected from Petri plates prepared as described in the phage titration procedure. A sterilized toothpick was used to remove a plaque from the Petri plate and transfer it to a well in the 96 well plate. The infected E. coli ER2738 cells were incubated for 4 hours at 37° C. with shaking (300 rpm). The liquid cultures were then centrifuged (4000 rpm for 60 min at 4° C.) and an aliquot of the resulting phage supernatant (10 microliters) from each well was sequenced for DNA using the rolling circle amplification method. The DNA sequencing was conducted at MCLAB (South San Francisco, Calif.).
Each phage display library (200 microliters in PBS) was applied to a 1 cm^2 section of human cadaver skin using a PIPETMAN Classic pipet (Gilson Inc., Middleton, Wis.). Adhesive tape was used to form a square frame that defined the application site. After 1 hour, the application site was washed with PBS to remove phages remaining on the skin surface. Tape stripping of the skin sample was accomplished using Scotch® box tape (3M Company, Maplewood, Minn.). […]

Another assay has as its system Hairless guinea pigs. The experiment in a line: Phage display library selection for skin penetration, in vivo hairless guinea pig procedure. To be noted: phage-displayed peptide; phages recovered from blood 1 hour after loading on back skin; 48 plaques sequenced. As for the experimental part: as §2
Hairless guinea pigs (200 gram females from Charles River Laboratory, Wilmington, Mass.) were anesthetized in a chamber using 3-5% isoflurane in oxygen or air, and maintained at 1.5-3% isoflurane with a co-axial breathing device (COAX-3 obtained from Viking Medical, Medford Lakes, N.J.). Each animal was placed in lateral recumbency on a thermostatically controlled surface with its nose and mouth inside the anesthetic face mask for the duration of the experiment. During the procedure, the animal was monitored for respiration rate and the level of anesthesia was adjusted as required. The section of the back used for loading a phage library was wiped with a 70% isopropanol in water solution.
A phage display library containing about 10^11 phage particles in 200 microliters of PBS was loaded onto a 1 cm^2 section of skin on the back of the animal using a PIPETMAN Classic pipet. In order to both control the humidity and reduce contamination at the application site, a Hill Top Chamber® (Hill Top Research, St. Petersburg, Fla.) was placed over the application site and attached with adhesive. After 1 hour, 10 mL of blood was bled from the heart. The blood was immediately transferred to a vial containing heparin (1000 USP units per mL). The sample of blood (10 mL) was mixed with 50 mL of E. coli ER2738 cells in LB broth medium (early log phase, OD600=0.5) and then added to 300 mL of soft agar. Equal portions of soft agar containing blood and ER2738 (about 7 mL per plate) were added to fifty LB/IPTG/X-gal/tetracycline Petri plates. The plates were incubated overnight at 37° C. The resulting single plaque phages were randomly picked from the agar plate and processed for phage DNA sequencing using the procedure described above. DNA sequences were successfully obtained from 48 of the 96 isolated phage plaques.

Assay [2] has as its system human cadaver skin. The experiment in a line: In vitro skin penetration enhancement of GFP, tape stripping. It counts as in vitro ADME. To be noted: 0.1 mg peptide with GFP 2.55 mg/mL in PBS; 2 hours at room temperature; 20 tape strips; control without peptide reached tape strip 6. As for the experimental part: as §1
An in vitro assay to test for skin penetration enhancement was conducted using human cadaver skin. Two test samples (A and B) and a control sample were prepared. Test sample A contained GFP (at a concentration of 2.55 mg/mL), 0.1 mg of the peptide ACLDNTFRAC (Sequence ID No: 6, Table 2), and PBS (50 microliters). Test sample B contained GFP (at a concentration of 2.55 mg/mL), 0.1 mg of the peptide SHSACLDNTFRACGGGS (Sequence ID No: 14, Table 3), and PBS (50 microliters). The control sample contained GFP (at a concentration of 2.55 mg/mL) and PBS (100 microliters). Each sample was applied to a separate 1 cm^2 section of human cadaver skin using a PIPETMAN classic pipet. Adhesive tape was used to form a square frame that defined each application site. The treated skin samples were covered, maintained at room temperature for 2 hours, and then washed with deionized water for 5 minutes to remove any GFP remaining on the skin surface. Tape stripping of each skin application site was accomplished using Scotch® box tape. […]

For the next assay, the system named is hairless guinea pig skin. In words: In vitro skin penetration enhancement of FITC, tape stripping. The class given is in vitro ADME. The conditions noted are these: peptide 1 mg/mL with FITC sodium salt 10 mg/mL in PBS; 1 hour at room temperature; UV 340 nm; spot indicates penetration of FITC to the 20th tape strip. As for the experimental part: An in vitro assay to test for skin penetration enhancement was conducted using hairless guinea pig skin. A full skin sample from the back region of the animal was used. An individual test sample for each peptide in Table 3 was prepared containing the peptide (at a concentration of 1 mg/mL), FITC sodium salt (at a concentration of 10 mg/mL), and PBS (200 microliters). The control sample was prepared containing only FITC sodium salt (at a concentration of 10 mg/mL), and PBS (200 microliters). Each peptide test sample was applied to a separate 1 cm^2 section on the stratum corneum side of the guinea pig skin using a PIPETMAN Classic pipet. In the same manner, the control sample was applied. The treated skin samples were covered, maintained at room temperature for 1 hour and then washed with deionized water for 5 minutes to remove any FITC remaining on the skin surface. Tape stripping of each skin application site was accomplished using Scotch® box tape. The tape was placed on the skin so that it covered the entire surface of an individual application site (width of tape strip approximately 1.5 cm). For each tape stripping procedure, the tape was secured to the skin with three cycles (3 forward and 3 backward passes) of a 300 g hand held roller. Next the tape was grasped by hand at one end and quickly peeled from the skin surface using a single motion. The exact same procedure of tape stripping was repeated for a total of 20 tape stripping operations at each application site. The 20th tape strip for each sample was imaged for FITC using ultraviolet light at 340 nm. The presence of a fluorescent spot on the tape indicated penetration of FITC to the 20th tape strip.

As to “1 (ACLPGVLGSC; Phage display library peptides) [compound 1]”, in the assay on human cadaver skin [1], the “Frequency of Sequence in Plaques from Tape Stripping of Human Cadaver Skin Study” value (from here on “Frequency … of Human Cadaver Skin Study”) is on record as 1 n/57. Also, in the assay on Hairless guinea pigs, the “Frequency of Sequence in Plaques from Hairless Guinea Pig Study” value (“Frequency … from Hairless Guinea Pig Study” below) was 0 n/48. As for “2 (ACSLPWDASC; Phage display library peptides) [compound 2]”, the “Frequency … of Human Cadaver Skin Study” value in the assay with human cadaver skin [1] came to 1 n/57. For the same substance, the “Frequency … from Hairless Guinea Pig Study” value in the assay with Hairless guinea pigs was 0 n/48. In the same order, the values of “3 (ACDTPRLTHC; Phage display library peptides) [compound 3]” are 2 n/57 and 0 n/48. With “4 (TWTQAWPWGWTW; Phage display library peptides) [compound 4]”, in the assay on human cadaver skin [1], the “Frequency … of Human Cadaver Skin Study” value is listed as 1 n/57. For the same substance, the “Frequency … from Hairless Guinea Pig Study” value in the assay with Hairless guinea pigs was 0 n/48. Consider “5 (AKSSWWGRAYWY; Phage display library peptides) [compound 5]”, for which the “Frequency … of Human Cadaver Skin Study” value in the assay with human cadaver skin [1] came out at 1 n/57. In addition, the “Frequency … from Hairless Guinea Pig Study” value in the assay on Hairless guinea pigs worked out at 0 n/48. For “6 (ACLDNTFRAC; Phage display library peptides) [compound 6]”, the “Frequency … of Human Cadaver Skin Study” value in the assay on human cadaver skin [1] worked out at 2 n/57. For the same substance, the “deepest penetration of the green fluorescent signal of GFP in the skin sample (tape strip number)” value in the assay with human cadaver skin [2] is 14. Besides, the “Frequency … from Hairless Guinea Pig Study” value in the assay with Hairless guinea pigs is listed as 11 n/48. “7 (ASSTTLNTLAQ; Phage display library peptides) [compound 7]”: the “Frequency … of Human Cadaver Skin Study” value with human cadaver skin [1] amounted to 9 n/57. Further, the “Frequency … from Hairless Guinea Pig Study” value in the assay on Hairless guinea pigs stood at 5 n/48. On the same counts, the results for “8 (ASSDIPLFTRY; Phage display library peptides) [compound 8]” are 1 n/57 and 4 n/48. Regarding “10 (SHSACSLPWDASCGGGS; Phage display library peptides) [compound 10]”, the “Fluorescent Spot Visualized on Tape Strip #20” value (from here on “Fluorescent Spot Visualized”) with hairless guinea pig skin is listed as “yes”. Consider “12 (SHSTWTQAWPWGWTWGGGS; Phage display library peptides) [compound 12]”, for which the “Fluorescent Spot Visualized” value in the assay with hairless guinea pig skin is “yes”. Turning to “13 (SHSAKSSWWGRAYWYGGGS; Phage display library peptides) [compound 13]”, the “Fluorescent Spot Visualized” value in the assay on hairless guinea pig skin is “yes”.

Turning to “14 (SHSACLDNTFRACGGGS; Phage display library peptides) [compound 14]”, the “Fluorescent Spot Visualized” value in the assay on hairless guinea pig skin is listed as “yes”. In addition, the “deepest penetration of the green fluorescent signal of GFP in the skin sample (tape strip number)” value in the assay with human cadaver skin [2] is on record as 20.

In the case of “15 (SHSASSTTLNTLAQWPA; Phage display library peptides) [compound 15]”, the “Fluorescent Spot Visualized” value with hairless guinea pig skin was “yes”.

As to “16 (SHSASSDIPLFTRYGGGS; Phage display library peptides) [compound 16]”, in the assay with hairless guinea pig skin, the “Fluorescent Spot Visualized” value is “yes”.
